Measurements published in the SangsterLogP compilation.
Each block holds one molecule with its values, some of them ahead of it.

Assays:
[1] = method code SF, from PMID: 8999431; details: pH 7.4
[2] = method code SF-AS, from DOI: 10.1163/156856796x00098; details: pH 7.4
[3] = method code SF, from DOI: 10.1016/0168-3659(92)90078-6; details: pH 7.0
[4] = not given; remark: listed apart in the source
[5] = not given; remark: listed apart in the source
[6] = method code SF-HPLC, from DOI: 10.1016/s0021-9673(99)01336-9, PMID: 10757301
[7] = method code SF-RC, from DOI: 10.1016/0361-9230(85)90153-4, PMID: 2413968
[8] = method code SF-AS, from DOI: 10.1021/jm00395a009, PMID: 3681892; details: pH 7.4
[9] = method code SF-AS, from DOI: 10.1002/ps.2780160411
[10] = method code SF-AS, from DOI: 10.1002/chin.198428254
[11] = method code SF-RC, from Godoy, N.; Valle, L.; Mena, P.; Gil, M. (1989). Synthesis, labeling and biodistribution of 99mTc-labelled bromoimino diacetic acids. Nucleotecnica, 9(17)25-32.
[12] = not given; remark: listed apart in the source
[13] = not given; remark: listed apart in the source
[14] = not given; remark: listed apart in the source
[15] = method code SF-AS, from DOI: 10.1016/j.bmc.2004.10.037, PMID: 15653345
[16] = not given; remark: listed apart in the source
[17] = method code SF-HPLC, from DOI: 10.1248/cpb.47.1081, PMID: 10478463; details: pH 6.5
[18] = not given; remark: listed apart in the source
[19] = not given; remark: listed apart in the source
[20] = method code SF-RC, from DOI: 10.1016/j.nucmedbio.2006.06.006, PMID: 16934700; details: pH 7.4
[21] = not given; remark: listed apart in the source
[22] = not given; remark: listed apart in the source
[23] = method code SF-AS, from DOI: 10.1248/cpb.32.5003, PMID: 6534549
[24] = not given; remark: listed apart in the source

logD [1]: 3.15
Compound: CCn1cc(C(=O)NC(CC(C)C)C(=O)OC)c(=O)c2ccc(C)nc21 (centres undefined)

logP: 2.58
Compound: Cc1onc(-c2c(F)cccc2Cl)c1C(=O)N[C@@H]1C(=O)N2[C@@H]1SC(C)(C)[C@@H]2C(=O)O

logD [2]: 1
Compound: CCOP(=O)(CC(C)(C)[N+]([O-])=Cc1ccccc1)OCC

logD [3]: 0.65
Compound: CCCCC(=O)OC[C@@H]1CC[C@H](n2cnc3c(=O)[nH]cnc32)O1

logP [4]: 4.97
Compound: Cc1cccc2c1Cc1ccccc1-2

logD [3]: 1.02
Compound: Cc1ccccc1C(=O)OCC1CCC(n2cnc3c(O)ncnc32)O1 (centres undefined)

logP [5]: 3.46
Compound: CCOCn1c(Cc2cc(C)cc(C)c2)c(C(C)C)c(=O)[nH]c1=O

Compound: c1ccc2c(c1)Cc1cc3ccccc3cc1-2
logP [4]: 5.75

logP [6]: 0.08
Compound: CC(=O)OCC1=C(C(=O)O)N2C(=O)C(NC(=O)Cc3cccs3)C2SC1 (centres undefined)

logP [7]: -0.56
Compound: CSCC[C@H](NC(=O)[C@H](CC(C)C)NC(=O)CNC(=O)[C@H](Cc1ccccc1)NC(=O)[C@H](Cc1ccccc1)NC(=O)[C@H](CCC(N)=O)NC(=O)[C@H](CCC(N)=O)NC(=O)[C@@H]1CCCN1C(=O)[C@H](CCCCN)NC(=O)[C@@H]1CCCN1C(=O)[C@@H](N)CCCN=C(N)N)C(N)=O

logD [8]: 1.38
Compound: O=c1c(F)cn(C2CCCO2)c(=O)n1Cc1ccccc1 (centres undefined)

logP [9]: 3.2
Compound: COc1c(Br)cccc1C(=CC(=O)C(C)(C)C)n1cncn1

logD [8]: 1.81
Compound: COCC1OC(n2ccc(=O)n(Cc3ccccc3)c2=O)C(OC)C1OC (centres undefined)

logP [6]: -0.13
Compound: CO/N=C(\C(=O)N[C@@H]1C(=O)N2C(C(=O)O)=C(COC(C)=O)CS[C@H]12)c1csc(N)n1

logD [1]: 2.07
Compound: CCOC(=O)CNC(=O)c1cn(CC)c2nc(C)ccc2c1=O

logP [10]: 1.52
Compound: O=C(NCCN1CCN2Cc3[nH]c4ccccc4c3CC2C1)c1ccccc1 (centres undefined)

logD [8]: -0.36
Compound: CC(=O)OC[C@H]1O[C@@H](n2ccc(=O)[nH]c2=O)[C@H](OC(C)=O)[C@@H]1OC(C)=O

logP [11]: 0.28
Compound: Cc1ccc(Br)c(C)c1NC(=O)CN(CC(=O)O)CC(=O)O

logP [7]: -1.35
Compound: CCNC(=O)[C@@H]1CCCN1C(=O)[C@H](CCCN=C(N)N)NC(=O)[C@H](CC(C)C)NC(=O)[C@@H](COC(C)(C)C)NC(=O)[C@H](Cc1ccc(O)cc1)NC(=O)[C@H](CO)NC(=O)[C@H](Cc1c[nH]c2ccccc12)NC(=O)[C@H](Cc1cnc[nH]1)NC(=O)[C@@H]1CCC(=O)N1

logD [2]: 2.29
Compound: CCOP(=O)(CC(C)(C)[N+]([O-])=Cc1ccc(Cl)cc1)OCC

logD [2]: -0.74
Compound: CCOP(=O)(CC(C)(C)[N+]([O-])=Cc1cc[n+]([O-])cc1)OCC

logP [12]: 3.2
Compound: FC(F)C(F)(F)OCC1COC(Cn2cncn2)(c2ccc(Cl)cc2Cl)O1 (centres undefined)

Compound: Cc1cc(C)cc(OP(=O)(Oc2cc(C)cc(C)c2)Oc2cc(C)cc(C)c2)c1
logP [13]: 5.26

logP: 3.14
Compound: CC1(C)S[C@@H]2[C@H](NC(=O)C(C(=O)Oc3ccccc3)c3ccccc3)C(=O)N2[C@H]1C(=O)O (some centres undefined)

logP [14]: 2.4
Compound: Nc1ccc(-c2ccc3cc(OCCF)ccc3n2)cc1

logP [15]: 1.79
Compound: C#CCN1CCN(Cc2ccc(O)c3ncccc23)CC1

logP [16]: 4.23
Compound: CC(C)N(CCC(CCC1CCCCC1)(C(N)=O)c1ccccc1Cl)C(C)C (centres undefined)

logD [17]: 0.46
Compound: CON=C(C(=O)NC1C(=O)N2C(C(=O)OC(C)OC(C)=O)=CCSC12)c1csc(N)n1 (centres undefined)

logP [5]: 3.44
Compound: CCc1c(Sc2ccccc2)n(COCc2ccccc2)c(S)nc1=O

logP [18]: 3.2
Compound: Cc1nc(S(=O)(=O)Nc2c(F)cccc2F)nn1-c1ccccc1

logP [16]: 2.83
Compound: CC(C)N(CCC(C(N)=O)c1ccccc1Cl)C(C)C (centres undefined)

logD [17]: 1.37
Compound: CON=C(C(=O)NC1C(=O)N2C(C(=O)OC(C)OC(=O)OC(C)C)=CCSC12)c1csc(N)n1 (centres undefined)

logP [19]: 2.58
Compound: COc1ccc2c(c1)OC[C@]1(O)c3cc4c(cc3O[C@H]21)OCO4

logP [16]: 3.66
Compound: CC(C)N(CCC(C(N)=O)c1ccc(-c2ccccc2)cc1)C(C)C (centres undefined)

logD [20]: 3.56
Compound: FCCCNc1ccc(-c2cc3ccccc3s2)cc1

Compound: CS(=O)(=O)NC(=O)c1cc(Oc2ccc(C(F)(F)F)cc2Cl)ccc1[N+](=O)[O-]
logP [9]: 2.9

Compound: Cc1c2ccccc2c(C)c2ccccc12
logP [4]: 5.25

logP [15]: 1.57
Compound: CCOC(=O)N1CCN(Cc2ccc(O)c3ncccc23)CC1

logP [19]: 2.44
Compound: COc1ccc([C@@H]2COc3cc(O)ccc3C2)c(O)c1

logP [21]: 2.72
Compound: Cc1nc(NCC(C)O)c(C#N)cc1-c1ccccc1 (centres undefined)

Compound: CCCC1COC(Cn2cncn2)(c2ccc(Cl)cc2Cl)O1 (centres undefined)
logP [12]: 3.4

logP [22]: 3.21
Compound: CCCCNc1cc(C(=O)O)cc(S(N)(=O)=O)c1Oc1ccccc1

logP [22]: 3.75
Compound: COC(=O)C1=C(C)NC(C)=C(C(=O)OC(C)C)[C@H]1c1cccc2nonc12

logP [21]: 2.86
Compound: COc1ccc(-c2cc(C#N)c(Cl)nc2C)cc1OC

logP [23]: 2.73
Compound: O=C(Cc1ccccc1)Nc1ccccc1[N+](=O)[O-]

logP [15]: 0.71
Compound: C#CCNC(Cc1ccc(O)c2ncccc12)C(=O)OCC (centres undefined)

Compound: CCCCOP(=O)(OCCCC)Oc1ccccc1
logP [13]: 3.23

logD [20]: 3.07
Compound: COc1ccc(-c2cc3ccccc3s2)cc1

logP [21]: 2.72
Compound: Cc1nc(NCCCO)c(C#N)cc1-c1ccccc1

logD [1]: 2.47
Compound: CCn1cc(C(=O)NC(C)C(=O)OC)c(=O)c2ccc(C)nc21 (centres undefined)

logP [7]: -1.42
Compound: NC(=O)[C@@H]1CCCN1C(=O)[C@H](Cc1cnc[nH]1)NC(=O)[C@@H]1CCC(=O)N1

logP [9]: 5.73
Compound: CC(C)CCCCCOC(=O)COc1ccc(Cl)cc1Cl

logP [11]: -0.1
Compound: CCCCc1ccc(NC(=O)CN(CC(=O)O)CC(=O)O)cc1Br

logP [24]: 3.9
Compound: Clc1cccc(Cl)c1C=NN=c1ccn(CCCc2ccccc2)cc1

logD [17]: 2.52
Compound: CON=C(C(=O)NC1C(=O)N2C(C(=O)OC(C)OC(=O)OC3CCCCC3)=CCSC12)c1csc(N)n1 (centres undefined)

logP: 0.59
Compound: CC1(C)S[C@@H]2[C@H](NC(=O)[C@@H](c3ccccc3)S(=O)(=O)O)C(=O)N2[C@H]1C(=O)O

logP [18]: 4.4
Compound: Cc1ccc(Cl)c(NS(=O)(=O)c2nc(C)n(-c3ccccc3)n2)c1Cl

Compound: OC(Cn1cncn1)(c1ccc(F)cc1)c1ccccc1F (centres undefined)
logP [12]: 2.3

logP [5]: 0.74
Compound: CCOCn1c(Cc2ccccc2)c(CC)c(=O)[nH]c1=O

logP [6]: -0.15
Compound: CC(=O)OCC1=C(C(=O)O)N2C(=O)[C@@H](NC(=O)CSc3ccncc3)[C@H]2SC1

logD [3]: 0.11
Compound: CCCC(=O)OC[C@@H]1CC[C@H](n2cnc3c(=O)[nH]cnc32)O1

logP [10]: 1.8
Compound: O=C(NCCN1CCN2Cc3[nH]c4ccccc4c3CC2C1)c1ccccc1[N+](=O)[O-] (centres undefined)

logP [23]: 1.45
Compound: Nc1ccccc1NC(=O)Cc1ccccc1

logP [14]: 2.32
Compound: CNc1ccc(-c2ccc3cc(OCC(O)CF)ccc3n2)cc1 (centres undefined)

logP [23]: 2.68
Compound: COc1ccccc1NC(=O)Cc1ccccc1

Compound: c1ccc2c3c([nH]c2c1)CN1CCNCC1C3 (centres undefined)
logP [10]: 0.36

logP [19]: 3.58
Compound: CC1(C)C=Cc2c(ccc3c2O[C@H]2c4ccc(O)cc4OC[C@@H]32)O1 (relative stereo)

logP [11]: -0.11
Compound: Cc1cc(C)c(NC(=O)CN(CC(=O)O)CC(=O)O)c(C)c1Br

logP [24]: 4
Compound: Clc1cccc(Cl)c1C=NN=c1ccn(CCc2c(Cl)cccc2Cl)cc1

logP [14]: 3.71
Compound: CN(CCF)c1ccc2cc(CC=C(C#N)C#N)ccc2c1

Compound: CCCCC(CC)COP(=O)(Oc1ccccc1)Oc1ccccc1 (centres undefined)
logP [13]: 5

logP [18]: 3.7
Compound: CCc1nc(S(=O)(=O)Nc2c(F)cccc2F)nn1-c1ccccc1

logP [24]: 2.8
Compound: ON=C1CCN(CCCc2ccccc2)CC1

logD [20]: 2.88
Compound: FCCCOc1ccc(-c2cc3ccccc3s2)cc1
